Measured values taken from US11584746B2, “Inhibitors of EGFR and methods of use thereof” (DANA-FARBER CANCER INSTITUTE, INC., priority 2018, dated 2023).
pEC50, pIC50: −log10 of the molar value. Like-named read-outs stand apart in the source and are kept apart here.

How the values were obtained:
[1] = test system: patients with NSCLC resistant to gefitinib or erlotinib; conditions: cited from earlier work
[2] = test system: EGFR T790M/L858R Ba/F3 cell line; experiment: Ba/F3 cell proliferation (MTS assay), EGFR T790M/L858R; format: cell-based, murine; conditions: for inhibition at 1 µM: compound at 1 μM, EGFR T790M/L858R Ba/F3, read-out: Inhibition of proliferation, Activity (% DMSO control)
Procedure: The selectivity between wild-type EGFR and EGFR containing one or more mutations as described herein can also be measured using cellular proliferation assays where cell proliferation is dependent on kinase activity. […] Proliferation assays are performed at a range of inhibitor concentrations (e.g., 10 μM, 3 μM, 1.1 μM, 330 nM, 110 nM, 33 nM, I1 nM, 3 nM, 1 nM) and an EC50 is calculated.
All cell lines were maintained in RPMI 1640 (Cellgro; Mediatech Inc., Herndon, Calif.) supplemented with 10% FBS 100 units/mL penicillin, 100 units/mL streptomycin, and 2 mM glutamine. […] The EGFR I941R mutation was introduced via site directed mutagenesis using the Quick Change Site-Directed Mutagenesis kit (Stratagene; La Jolla, Calif.) according to the manufacturer's instructions. All constructs were confirmed by DNA sequencing. The constructs were shuttled into the retroviral vector JP1540 using the BD Creator™ System (BD Biosciences). Ba/F3 cells were infected with retrovirus and according to standard protocols, as described previously (Zhou 2009). Stable clones were obtained by selection in puromycin (2 μg/ml).
Growth and inhibition of growth was assessed by MTS assay and was performed according to previously established methods (Zhou 2009). The MTS assay is a colorimetric method for determining the number of viable cells that is based on the bioreduction of MTS by cells to a formazan product that is soluble in cell culture medium and can be detected spectrophotometrically. […] All experimental points were set up in six wells and all experiments were repeated at least three times. […] The curves were fitted using a non-linear regression model with a sigmoidal dose response.

[3] = target: recombinant EGFR T790M/L858R kinase (Homo sapiens (Human), UniProt P00533, L858R/T790M); experiment: HTRF-based EGFR biochemical assay
Procedure: EGFR biochemical assays are carried out using a homogeneous time-resolved fluorescence (HTRF) assay. The reaction mixtures contain biotin-Lck-peptide substrate, wild type, or mutant EGFR enzyme in reaction buffer. Enzyme concentrations are adjusted to accommodate varying kinase activity and ATP concentrations. Compounds of the present application are diluted into the assay mixture and IC50 values are determined using 12-point inhibition curves.
EGFR kinase proteins were purified by glutathione-affinity chromatography followed by size-exclusion chromatography after cleavage with TEV or thrombin to remove the GST fusion partner following established procedures. (Yun 2008; Yun 2007).
EGFR biochemical assays were carried out using a homogeneous time-resolved fluorescence (HTRF) assay as described previously. The reaction mixtures contained 1 μM biotin-Lck-peptide substrate, wild type or mutant EGFR enzyme in reaction buffer (50 mM HEPES pH 7.1, 10 mM MgCl2, 0.01% BSA. 1 mM TCEP and 0.1 mM Na3VO4) at a final volume of 10 μL. […] All reactions were carried out at room temperature in white ProxiPlate™ 384-well Plus plates (PerkinElmer) and were quenched with 5 μL of 0.2 M EDTA at 60 min. Five μL per well of the detection reagent containing 2.5 ng PT66K (Cis-bio) and 0.05 μg SAXL (Prozyme) were added, and the plates were then incubated at room temperature for 1 hour and read with an EnVision plate reader.

[4] = test system: EGFR L858R/T790M/C797S Ba/F3 cell line; experiment: Ba/F3 cell proliferation (MTS assay), EGFR L858R/T790M/C797S; format: cell-based, murine; conditions: Mus musculus, BaF3, compound at 1 μM, read-out: Inhibition of proliferation, Activity (% DMSO control)
Excerpt: The selectivity between wild-type EGFR and EGFR containing one or more mutations as described herein can also be measured using cellular proliferation assays where cell proliferation is dependent on kinase activity. For example, murine Ba/F3 cells transfected with a suitable version of wild-type EGFR (such as VIII; containing a WT EGFR kinase domain), or Ba/F3 cells transfected with L858R/T790M, Del/T790M/L718Q, L858R/T790M/L718Q, L858R/T790M/C797S, Del/T790M/C797S, L858R/T790M/I941R, or Exon 19 deletion/T790M can be used. Proliferation assays are performed at a range of inhibitor concentrations (e.g., 10 μM, 3 μM, 1.1 μM, 330 nM, 110 nM, 33 nM, I1 nM, 3 nM, 1 nM) and an EC50 is calculated.
The EGFR mutant L858R, Del E746_A750, L858R/T790M, DelE746_A750/T790M, L858R/T790M/C797S and Del/T790M/C797S Ba/F3 cells were previously described (Zhou et al., Nature 462, (2009), 1070-1074). All cell lines were maintained in RPMI 1640 (Cellgro; Mediatech Inc., Herndon, Calif.) supplemented with 10% FBS 100 units/mL penicillin, 100 units/mL streptomycin, and 2 mM glutamine. L858R cells were maintained in ACL-4 media (Invitrogen, Carlsbad, Calif.) supplemented with 5% FBS, 100 units/mL penicillin, 100 units/mL streptomycin, and 2 mM glutamine. The EGFR I941R mutation was introduced via site directed mutagenesis using the Quick Change Site-Directed Mutagenesis kit (Stratagene; La Jolla, Calif.) according to the manufacturer's instructions. All constructs were confirmed by DNA sequencing. The constructs were shuttled into the retroviral vector JP1540 using the BD Creator™ System (BD Biosciences). Ba/F3 cells were infected with retrovirus and according to standard protocols, as described previously (Zhou 2009). Stable clones were obtained by selection in puromycin (2 μg/ml).
Growth and inhibition of growth was assessed by MTS assay and was performed according to previously established methods (Zhou 2009). The MTS assay is a colorimetric method for determining the number of viable cells that is based on the bioreduction of MTS by cells to a formazan product that is soluble in cell culture medium and can be detected spectrophotometrically. Ba/F3 cells of different EGFR genotypes were exposed to treatment and the number of cells used per experiment determined empirically and has been previously established (Zhou 2009). All experimental points were set up in six wells and all experiments were repeated at least three times. […] The curves were fitted using a non-linear regression model with a sigmoidal dose response.

[5] = Mus musculus, BaF3, read-out: Ba/F3 cellular activity (EC50) T790M/L858R
[6] = read-out: Ba/F3 cellular activity (EC50) T790M/L858R + Cetuximab (1 μg/mL), presence of 1 μg/mL cetuximab

Chain of recombinant EGFR T790M/L858R kinase (P00533 696-1022 T790M/L858R): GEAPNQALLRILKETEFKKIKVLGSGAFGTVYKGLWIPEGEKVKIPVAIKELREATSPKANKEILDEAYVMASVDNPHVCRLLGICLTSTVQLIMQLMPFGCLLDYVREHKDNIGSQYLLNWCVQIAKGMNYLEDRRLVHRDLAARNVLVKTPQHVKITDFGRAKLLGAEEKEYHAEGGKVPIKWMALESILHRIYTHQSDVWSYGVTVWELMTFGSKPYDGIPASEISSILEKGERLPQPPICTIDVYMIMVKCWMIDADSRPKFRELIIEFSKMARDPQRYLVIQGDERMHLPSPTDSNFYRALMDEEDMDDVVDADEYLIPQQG

Compound | RR [1] | inhibition at 1 µM ([2]; Mus musculus, BaF3) | pEC50 [2, 5] | pEC50 [2, 6] | pIC50 [3] | inhibition at 1 µM [4]
CN(C)C/C=C/C(=O)Nc1cc2c(Nc3ccc(F)c(Cl)c3)ncnc2cc1O[C@H]1CCOC1 [Afatinib] | < 10% | – | – | – | – | –
O=C1c2cc(-c3ccc(N4CCNCC4)cc3)ccc2Nc2ccc(F)cc2N1Cc1ccccc1 [Compound I-1, 10-Benzyl-8-fluoro-2-(4-(piperazin-1-yl)phenyl)-5,10-dihydro-11H-dibenzo[b,e][1,4]diazepin-11-one] | – | ≥ 75% | ≤ 6.12 | 6.12 to 6.30 | > 6.60 | ≥ 75%
O=C1c2cc(-c3ccc4[nH]ccc4c3)ccc2Nc2ccc(F)cc2N1Cc1ccccc1 [Compound I-2] | – | ≥ 75% | ≤ 6.12 | > 6.60 | > 6.60 | ≥ 75%
CN1CCC(n2cc(-c3ccc4c(c3)C(=O)N(Cc3ccccc3)c3cc(F)ccc3N4)cn2)CC1 [Compound I-3] | – | ≥ 75% | ≤ 6.12 | > 6.60 | > 6.60 | ≥ 75%
O=C1c2cc(-c3ccc(-c4cn[nH]c4)cc3)ccc2Nc2ccc(F)cc2N1Cc1ccccc1 [Compound I-4] | – | ≥ 75% | ≤ 6.12 | 6.30 to 6.60 | > 6.60 | ≥ 75%
O=C1c2cc(-c3ccc(N4CCNCC4)cc3)ccc2Nc2ccc(F)cc2N1c1ccccc1 [Compound I-5] | – | ≥ 75% | ≤ 6.12 | ≤ 6.12 | – | ≥ 75%
O=C1c2cc(-c3ccc(N4CCNCC4)cc3)ccc2Nc2ccc(F)cc2N1Cc1cccnc1 [Compound I-6] | – | ≥ 75% | ≤ 6.12 | ≤ 6.12 | – | ≥ 75%
O=C1c2cc(-c3ccc(N4CCNCC4)cc3)ccc2Nc2ccc(F)cc2N1Cc1nccs1 [Compound I-7] | – | ≥ 75% | ≤ 6.12 | ≤ 6.12 | > 6.60 | ≥ 75%
O=C1c2cc(-c3ccc4[nH]ccc4c3)ccc2Nc2ccc(F)cc2N1c1ccccc1 [Compound I-8] | – | ≥ 75% | ≤ 6.12 | ≤ 6.12 | – | ≥ 75%
O=C1c2cc(-c3ccc4[nH]ccc4c3)ccc2Nc2ccc(F)cc2N1Cc1cccnc1 [Compound I-9] | – | ≥ 75% | ≤ 6.12 | ≤ 6.12 | – | ≥ 75%
O=C1c2cc(-c3ccc4[nH]ccc4c3)ccc2Nc2ccc(F)cc2N1Cc1nccs1 [Compound I-10] | – | ≥ 75% | ≤ 6.12 | ≤ 6.12 | – | ≥ 75%
O=C1c2cc(-c3ccc(N4CCNCC4)cc3)ccc2Nc2ccccc2N1Cc1ccccc1 [Compound I-11] | – | ≥ 75% | ≤ 6.12 | 6.30 to 6.60 | > 6.60 | ≥ 75%
O=C1c2cc(-c3ccc(N4CCNCC4)cc3)ccc2Nc2ncc(F)cc2N1Cc1ccccc1 [Compound I-12] | – | – | ≤ 6.12 | ≤ 6.12 | – | –
O=C1c2cc(-c3ccc(N4CCNCC4)cc3)ccc2Nc2ccncc2N1Cc1ccccc1 [Compound I-13] | – | – | ≤ 6.12 | ≤ 6.12 | – | –
Nc1ccc2c(c1)N(Cc1ccccc1)C(=O)c1cc(-c3ccc4[nH]ccc4c3)ccc1N2 [Compound I-14] | – | – | ≤ 6.12 | ≤ 6.12 | – | –
CC(=O)Nc1ccc2c(c1)N(Cc1ccccc1)C(=O)c1cc(-c3ccc4[nH]ccc4c3)ccc1N2 [Compound I-15] | – | – | ≤ 6.12 | ≤ 6.12 | – | –
CCC(=O)Nc1ccc2c(c1)N(Cc1ccccc1)C(=O)c1cc(-c3ccc4[nH]ccc4c3)ccc1N2 [Compound I-16] | – | – | 6.30 to 6.60 | 6.30 to 6.60 | – | –
CN1CCC(c2ccc(-c3ccc4c(c3)C(=O)N(Cc3ccccc3)c3cc(F)ccc3N4)cc2)CC1 [Compound I-17] | – | – | – | – | > 6.60 | –
O=C1c2cc(-c3ccc(N4CCNCC4)cc3)ccc2Nc2ccc(F)cc2N1Cc1cccc2cc[nH]c12 [Compound I-18] | – | – | ≤ 6.12 | > 6.60 | > 6.60 | –
O=C1c2cc(-c3ccc(N4CCNCC4)cc3)ccc2Nc2ccc(F)cc2N1Cc1ccc2cc[nH]c2c1 [Compound I-19] | – | – | ≤ 6.12 | ≤ 6.12 | – | –
CN1CCN(c2ccc(Oc3ccc4c(c3)C(=O)N(Cc3ccccc3)c3cc(F)ccc3N4)cc2)CC1 [Compound I-20, 10-benzyl-8-fluoro-2-(4-(4-methylpiperazin-1-yl)phenoxy)-5,10-dihydro-11H-dibenzo[b,e][1,4]diazepin-11-one] | – | – | ≤ 6.12 | 6.30 to 6.60 | > 6.60 | –
CN1CCC(n2cc(-c3ccc4c(c3)C(=O)N(Cc3cccc(F)c3)c3cc(F)ccc3N4)cn2)CC1 [Compound I-22] | – | – | ≤ 6.12 | ≤ 6.12 | > 6.60 | –
CN1CCC(n2cc(-c3ccc4c(c3)C(=O)N(Cc3cccc(Cl)c3)c3cc(F)ccc3N4)cn2)CC1 [Compound I-23] | – | – | ≤ 6.12 | ≤ 6.12 | > 6.60 | –
CN1CCC(n2cc(-c3ccc4c(c3)C(=O)N(Cc3cc(F)cc(F)c3)c3cc(F)ccc3N4)cn2)CC1 [Compound I-24] | – | – | ≤ 6.12 | ≤ 6.12 | > 6.60 | –
CN1CCC(n2cc(-c3ccc4c(c3)C(=O)N(Cc3cccc5cc[nH]c35)c3cc(F)ccc3N4)cn2)CC1 [Compound I-25] | – | – | ≤ 6.12 | ≤ 6.12 | > 6.60 | –
O=C1c2cc(Br)ccc2Nc2ccc(F)cc2N1Cc1ccccc1 [I-a] | – | – | ≤ 6.12 | 6.30 to 6.60 | > 6.60 | –
